This passage reports EC50 and IC50 results from ChEMBL document CHEMBL5500324, “The potential of marine-derived piperazine alkaloids: Sources, structures and bioactivities” (Eur J Med Chem, 2024).

By IC50 is commonly meant the midpoint of a concentration-inhibition curve.

One data set has as its system L1210. Briefly: Cytotoxicity against mouse L1210 cells assessed as reduction in cell growth. In kind it is functional. The following applies: read-out: ED50 (the source's name).
The subject of data set [1] is MCF7. Kind of data set: Cytotoxicity against human MCF7 cells assessed as reduction in cell viability. In kind it is functional, cell-based.
Data set [2] can be described thus: Cytotoxicity against mouse FM3A tsFT210 cells assessed as inhibition of cell growth. In kind it is functional, cell-based.
Data set [3] has as its system U-937. Briefly: Cytotoxicity against human U-937 cells assessed as reduction in cell viability. In kind it is functional, cell-based.
The next data set concerns PC-3. Kind of data set: Cytotoxicity against human PC-3 cells assessed as reduction in cell viability. In kind it is functional, cell-based.
Data set [4] is described as follows: Cytotoxicity against human Huh7.5 cells assessed as reduction in cell viability incubated for 72 hrs by CCK-8 assay. It is filed as toxicity, cell-based, Huh-7.5.
In data set [5] the test system is HL-60. Kind of data set: Cytotoxicity against human HL-60 cells assessed as reduction in cell growth. In kind it is functional, cell-based.
The subject of data set [6] is U-937. Kind of data set: Cytotoxicity against human U-937 cells assessed as inhibition of cell growth. In kind it is functional, cell-based.
Another data set has as its system T47D. Kind of data set: Antiproliferative activity against human T47D cells incubated for 48 hrs by MTT assay. In kind it is functional, cell-based.
A further data set deals with P388. Briefly: Cytotoxicity against mouse P388 cells assessed as cell growth inhibition. In kind it is functional. The following applies: read-out: ED50 (the source's name).
Another data set relates to BC. Briefly: Cytotoxicity against human BC cells assessed as inhibition of cell growth. It is filed as functional, cell-based.
Data set [7] relates to HCT-116. Briefly: Antiproliferative activity against human HCT-116 cells assessed as reduction in cell viability incubated for 24 hrs by MTT assay. It is filed as functional, cell-based. The note with it: HCT-116, 24 h. (Tetrazolium dyes change colour on reduction, which living cells bring about.)
Another data set concerns KB. Briefly: Cytotoxicity against human KB cells assessed as inhibition of cell growth. In kind it is functional, cell-based.
A further data set has as its system QG-56. Briefly: Cytotoxicity against human QG-56 cells assessed as reduction in cell growth incubated for 24 hrs by MTT assay. In kind it is functional, cell-based. The following applies: QG-56, 24 h.
In a further data set the test system is DU-145. Kind of data set: Cytotoxicity against human DU-145 cells assessed as cell growth inhibition measured after 48 hrs by MTT assay. In kind it is functional, cell-based. The following applies: DU-145, 48 h.
Another data set has as its system SF-268. Briefly: Cytotoxicity against human SF-268 cells assessed as reduction in cell viability incubated for 72 hrs by SRB assay. It is filed as functional, cell-based. The note with it: SF-268, 72 h. A general note: In SRB staining, fixed cells bind dye roughly in proportion to their protein.
A further data set deals with HepG2. Briefly: Cytotoxicity against human HepG2 cells assessed as reduction in cell viability incubated for 72 hrs by SRB assay. It is filed as functional, cell-based. The note with it: HepG2, 72 h.
A further data set has as its system HeLa. Briefly: Cytotoxicity against human HeLa cells assessed as reduction in cell viability measured for 24 hrs by MTT assay. In kind it is functional, cell-based.
For another data set, the system named is K562. Kind of data set: Antiproliferative activity against human K562 cells assessed as reduction in cell growth incubated for 72 hrs by MTT assay. In kind it is functional, cell-based. The following applies: K562, 72 h.
Data set [8] has as its system HL-60. Briefly: Antiproliferative activity against human HL-60 cells assessed as reduction in cell growth incubated for 72 hrs by MTT assay. It is filed as functional, cell-based. The note with it: HL-60, 72 h.
Another data set has as its system BGC-823. Briefly: Cytotoxicity against human BGC-823 cells assessed as reduction in cell growth measured after 72 hrs by MTT assay. In kind it is functional, cell-based. The following applies: BGC-823, 72 h.
Data set [9] concerns MCF7. Kind of data set: Cytotoxicity against human MCF7 cells assessed as reduction in cell growth measured after 72 hrs by MTT assay. In kind it is functional, cell-based. The following applies: MCF7, 72 h.
The test system of a further data set is A549. Briefly: Cytotoxicity against human A549 cells assessed as reduction in cell viability incubated for 48 hrs by Celltiter-Glo assay. In kind it is functional, cell-based. The note with it: A549, 48 h. (In general: In ATP-based viability assays light output follows the ATP content of the culture.)
In data set [10] the test system is HCT-116. Kind of data set: Cytotoxicity against human HCT-116 cells assessed as reduction in cell viability incubated for 48 hrs by Celltiter-Glo assay. The note with it: HCT-116, 48 h. It is filed as functional, cell-based.
The nature of data set [11]: Cytotoxicity against human HaCaT cells incubated for 24 hrs by MTS assay. It is filed as toxicity, cell-based.
A further data set deals with MKN-1. Briefly: Cytotoxicity against human MKN-1 cells assessed as reduction in cell viability. In kind it is functional, cell-based.

SMILES strings stand for the structures. ≈ marks a conversion by molar mass, not a printed value.

With `CN1C[C@H](c2c[nH]c3cc(Br)ccc23)NC[C@H]1c1c[nH]c2cc(Br)ccc12`, the EC50 with L1210 turned out to be 10 µg/mL (≈ 20.5 µM).

Consider `COc1ccc2c3c([nH]c2c1)[C@H](C=C(C)C)N1C(=O)[C@]2(O)CCCN2C(=O)[C@@]1(O)[C@H]3OC`, for which the half-maximal inhibitory concentration (IC50) in the data set on MCF7 [1] came out at 7.6 µM.

As for `CS[C@]1(CO)C(=O)N2C3C(=CC=CC3O)C[C@@]2(SC)C(=O)N1C` (some centres not stated), the concentration for half-maximal inhibition (IC50) in [2] turned out to be 89.8 µg/mL (≈ 252 µM); in the data set on U-937 [3] it was 0.52 µM; in the data set with PC-3 it was 15.9 µM.

In the case of `CO[C@@H]1CC(=O)[C@@H]2C[C@@]34SS[C@]5(C[C@H]6C(=O)CC(=O)[C@H](O)[C@H]6N5C3=O)C(=O)N4[C@@H]2[C@H]1O`, in [4], the IC50 at 72 h was found to be 9.52 µM.

As to `CC(C)=CCC/C(C)=C/COc1ccc(/C=C2\NC(=O)[C@H](C)N(O)C2=O)cc1`, the IC50 in the data set with HL-60 [5], in the data set on U-937 [6] and with T47D was 11.6 µg/mL (≈ 30.2 µM) in each case.

On to `CS[C@H]1C(=O)N2[C@H]3Nc4ccccc4[C@@]3(c3c[nH]c4ccccc34)C[C@]2(SC)C(=O)N1C`, for which the EC50 in the data set with P388 was found to be 20 µg/mL (≈ 43 µM).

As for `COc1cc2c(cc1O)CCNC21CS[C@@H]2c3c(OC(C)=O)c(C)c4c(c3[C@H](COC1=O)N1[C@@H]2[C@H]2c3c(cc(C)c(OC)c3O)C[C@@H]([C@@H]1C#N)N2C)OCO4` (some centres not stated), the IC50 amounted to 0.0025 µM in the data set with BC; 0.0004 µM in the data set with HCT-116 [7]; 0.034 nM in the data set with KB; 0.0018 µM in the data set with QG-56; 0.00066 µM in the data set with DU-145.

In the case of `C=CC(C)(C)c1[nH]c2ccccc2c1/C=C1\NC(=O)[C@@]2(CC[C@@]3(O)c4cc(OC)cc(O)c4C(=O)c4c(O)cc(C)c2c43)NC1=O`, the IC50 stood at 12.5 µM in the data set on SF-268 and 15 µM in the data set with HepG2.

Consider `C=CC(C)(C)[C@@]12C[C@H]3C(=O)N[C@@H](Cc4ccc(O)cc4)C(=O)N3[C@@H]1N([C@H]1O[C@]3(C[C@@H]1NC(=O)/C=C/C(C)CC(C)CCCCCC)[C@@H]1O[C@@H]1[C@](O)(CC(C)=O)[C@@H]1O[C@@H]13)c1ccccc12` (some centres not stated), for which the IC50 with HeLa was 17.7 µM; with K562, 19.9 µM; with HL-60 [8], 12.1 µM; in the data set on BGC-823 it was 16.6 µM; in the data set with MCF7 [9] it was 8 µM.

Take `CCCCCCCCCC(CC(=O)NCCCN)N1CC(=O)N(O)C(Cc2ccccc2)C1=O` (configuration not stated): the IC50 in the data set on A549 was determined as 43.2 µM; with HCT-116 [10] it was 59.9 µM. For the same compound, the IC50 at 24 h in data set [11] came out at 50 µM.

Consider `CO[C@H]1c2c([nH]c3ccccc23)[C@H](C=C(C)C)N2C(=O)[C@@H]3CCCN3C(=O)[C@@]12O`, for which the results for the IC50 in the data set on MCF7 [1] and with MKN-1 were 10.8 µM and 20.7 µM, respectively.
